Experimental data published in patent EP4596574A1, “GLP-1/GCG/GIP TRIPLE-RECEPTOR AGONIST AND USE THEREOF” (Sunshine Lake Pharma Co., Ltd., priority 2022, dated 2024).
Starred links: 1 amine or outer side, 2 acyl side, 3 side chain; linkers in the order of their positions; H or OH if unused. Non-standard residues stand in square brackets, D forms with d. Residues, ends and D or L forms follow the SMILES beside them. Groups on a side chain read outwards from the residue. *: point of attachment. C18 diacid = O=C(O)CCCCCCCCCCCCCCCCC(=O)*; αMePhe(2-F) = C[C@](N)(Cc1ccccc1F)C(=O)O; γGlu = O=C(O)[C@H](CCC(=O)[*:2])N[*:1]; AEEA = NCCOCCOCC(=O)O; Aib = CC(C)(N)C(=O)O

Tests used:
Type in all cases: cell-based
[1] = target: T1, GIPR (Homo sapiens, UniProt P48546); experiment: In vitro cell activity, cAMP production in HEK293 cells expressing GIPR; conditions: HEK293-GIPR cells, cAMP; read-out: GIPR (EC50)
T1 construct: expressed in transfected cells; host or cells: HEK293 (HEK293-GIPR)
T1 sequence (P48546 22-466): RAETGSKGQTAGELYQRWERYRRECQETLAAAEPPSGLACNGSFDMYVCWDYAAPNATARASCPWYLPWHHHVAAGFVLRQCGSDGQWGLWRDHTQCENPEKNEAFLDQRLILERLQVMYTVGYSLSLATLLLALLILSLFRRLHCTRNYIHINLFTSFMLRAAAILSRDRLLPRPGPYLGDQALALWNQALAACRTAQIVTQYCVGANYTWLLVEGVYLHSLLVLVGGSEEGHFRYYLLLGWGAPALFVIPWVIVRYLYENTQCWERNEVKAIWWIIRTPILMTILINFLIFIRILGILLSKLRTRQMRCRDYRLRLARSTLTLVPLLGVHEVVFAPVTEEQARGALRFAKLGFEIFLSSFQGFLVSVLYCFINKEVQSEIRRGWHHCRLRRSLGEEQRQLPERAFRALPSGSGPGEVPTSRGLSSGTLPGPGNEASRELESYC
Outline: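 HEK293 cells expressing human GIPR, thawed and diluted to 4×10^5 cells/mL, are stimulated with test compound. cAMP is measured by HTRF competition between cAMP-d2 and anti-cAMP cryptate. EC50 comes from a four-parameter nonlinear fit of signal ratio against concentration.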

[2] = target: T2, GCGR (Homo sapiens, UniProt P47871); experiment: In vitro cell activity, cAMP production in HEK293 cells expressing GCGR; conditions: HEK293-GCGR cells, cAMP; read-out: GCGR (EC50)
T2 construct: expressed in transfected cells; host or cells: HEK293 (HEK293-GCGR)
Outline: (§1)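 cAMP output read as 665/620 nm HTRF ratio after adding cAMP-d2 plus anti-cAMP cryptate and incubating 1 h at room temperature in the dark or overnight at 4 °C. Cells: HEK293 expressing human GLP-1R or GCGR, plated from a 4×10^5 cells/mL suspension. Four-parameter fit gives EC50.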

[3] = target: T3, GLP-1R (Homo sapiens, UniProt P43220); experiment: In vitro cell activity, cAMP production in HEK293 cells expressing GLP-1R; conditions: HEK293-GLP-1R cells, cAMP; read-out: GLP-1R (EC50)
T3 construct: expressed in transfected cells; host or cells: HEK293 (HEK293-GLP-1R)
Outline: as §1

T2 sequence (P47871 26-477, species assumed): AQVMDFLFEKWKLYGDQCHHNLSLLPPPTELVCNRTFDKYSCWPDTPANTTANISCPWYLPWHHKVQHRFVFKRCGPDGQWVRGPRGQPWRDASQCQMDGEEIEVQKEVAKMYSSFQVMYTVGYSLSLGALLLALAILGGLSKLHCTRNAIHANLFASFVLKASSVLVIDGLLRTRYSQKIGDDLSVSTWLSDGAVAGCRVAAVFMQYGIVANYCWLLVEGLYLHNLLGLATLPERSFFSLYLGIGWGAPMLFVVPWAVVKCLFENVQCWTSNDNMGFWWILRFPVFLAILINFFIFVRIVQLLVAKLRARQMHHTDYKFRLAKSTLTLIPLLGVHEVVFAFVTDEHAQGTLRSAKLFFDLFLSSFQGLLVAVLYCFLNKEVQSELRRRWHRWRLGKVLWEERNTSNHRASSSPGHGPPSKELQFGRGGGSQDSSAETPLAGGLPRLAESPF
T3 sequence (P43220 24-463, species assumed): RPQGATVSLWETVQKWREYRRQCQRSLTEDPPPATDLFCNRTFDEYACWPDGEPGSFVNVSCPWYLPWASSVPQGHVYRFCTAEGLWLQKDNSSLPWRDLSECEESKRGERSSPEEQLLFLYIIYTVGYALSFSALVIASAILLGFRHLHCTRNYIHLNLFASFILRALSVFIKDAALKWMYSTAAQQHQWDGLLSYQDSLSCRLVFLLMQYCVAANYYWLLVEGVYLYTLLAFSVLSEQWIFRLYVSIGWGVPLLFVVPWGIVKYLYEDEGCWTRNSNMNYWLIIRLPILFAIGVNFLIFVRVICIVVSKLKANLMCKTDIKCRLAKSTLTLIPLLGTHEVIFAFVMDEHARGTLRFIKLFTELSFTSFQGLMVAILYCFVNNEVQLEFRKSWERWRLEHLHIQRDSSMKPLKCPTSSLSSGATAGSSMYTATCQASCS

Structure (SMILES) | EC50 [1] | EC50 [2] | EC50 [3]
CC[C@H](C)[C@H](NC(=O)[C@H](CCCCN)NC(=O)[C@H](CC(=O)O)NC(=O)[C@H](CCCCNC(=O)COCCOCCNC(=O)CC[C@H](NC(=O)CCCCCCCCCCCCCCCCC(=O)O)C(=O)O)NC(=O)[C@H](CC(C)C)NC(=O)[C@@H](NC(=O)[C@H](CO)NC(=O)[C@H](Cc1ccc(O)cc1)NC(=O)[C@H](CC(=O)O)NC(=O)[C@H](CO)NC(=O)[C@@H](NC(=O)[C@](C)(Cc1ccccc1F)NC(=O)[C@@H](NC(=O)CNC(=O)[C@H](CCC(N)=O)NC(=O)C(C)(C)NC(=O)[C@@H](N)Cc1ccc(O)cc1)[C@@H](C)O)[C@@H](C)O)[C@@H](C)CC)C(=O)N[C@@H](C)C(=O)N[C@@H](CCC(N)=O)C(=O)N[C@@H](CCC(N)=O)C(=O)N[C@@H](C)C(=O)N[C@@H](Cc1ccccc1)C(=O)N[C@H](C(=O)N[C@@H](CCC(=O)O)C(=O)N[C@@H](Cc1ccc(O)cc1)C(=O)N[C@@H](CC(C)C)C(=O)N[C@@H](CC(C)C)C(=O)N[C@@H](C)C(=O)NCC(=O)NCC(=O)N1CCC[C@H]1C(=O)N[C@@H](CO)C(=O)N[C@@H](CO)C(=O)NCC(=O)N[C@@H](C)C(=O)N1CCC[C@H]1C(=O)N1CCC[C@H]1C(=O)N1CCC[C@H]1C(=O)N[C@@H](CO)C(N)=O)[C@@H](C)CC [HEC-PT122] (H-Y[Aib]QGT[αMePhe(2-F)]TSDYSILK([AEEA-γGlu-C18 diacid])DKIAQQAFIEYLLAGGPSSGAPPPS-NH2) | 0.0276 nM | 0.162 nM | 0.0893 nM
CC[C@H](C)[C@H](NC(=O)[C@H](Cc1ccccc1)NC(=O)[C@H](C)NC(=O)[C@H](CCCNC(=N)N)NC(=O)[C@H](CCC(N)=O)NC(=O)[C@H](CCCNC(=N)N)NC(=O)[C@H](CCCCNC(=O)COCCOCCNC(=O)CC[C@H](NC(=O)CCCCCCCCCCCCCCCCC(=O)O)C(=O)O)NC(=O)[C@H](CCC(=O)O)NC(=O)[C@H](CC(=O)O)NC(=O)[C@H](CC(C)C)NC(=O)[C@H](CC(C)C)NC(=O)[C@@H](NC(=O)[C@H](CO)NC(=O)[C@H](Cc1ccc(O)cc1)NC(=O)[C@H](CC(=O)O)NC(=O)[C@H](CO)NC(=O)[C@@H](NC(=O)[C@](C)(Cc1ccccc1F)NC(=O)[C@@H](NC(=O)CNC(=O)[C@H](CCC(N)=O)NC(=O)C(C)(C)NC(=O)[C@@H](N)Cc1ccc(O)cc1)[C@@H](C)O)[C@@H](C)O)[C@@H](C)CC)C(=O)N[C@@H](CCC(=O)O)C(=O)N[C@@H](Cc1ccc(O)cc1)C(=O)N[C@@H](CC(C)C)C(=O)N[C@@H](CC(C)C)C(=O)N[C@@H](CCC(=O)O)C(=O)NCC(=O)NCC(=O)N1CCC[C@H]1C(=O)N[C@@H](CO)C(=O)N[C@@H](CO)C(=O)NCC(=O)N[C@@H](C)C(=O)N1CCC[C@H]1C(=O)N1CCC[C@H]1C(=O)N1CCC[C@H]1C(=O)N[C@@H](CO)C(=O)O [HEC-PT124] | 0.152 nM | 0.332 nM | 0.228 nM
CC[C@H](C)[C@H](NC(=O)[C@H](Cc1ccccc1)NC(=O)[C@H](CCC(=O)O)NC(=O)[C@H](CCCCNC(=O)COCCOCCNC(=O)CC[C@H](NC(=O)CCCCCCCCCCCCCCCCC(=O)O)C(=O)O)NC(=O)[C@H](CCC(N)=O)NC(=O)[C@H](CCCNC(=N)N)NC(=O)[C@@H](NC(=O)[C@H](CCCNC(=N)N)NC(=O)[C@H](CC(=O)O)NC(=O)[C@H](CC(C)C)NC(=O)[C@H](CC(C)C)NC(=O)[C@@H](NC(=O)[C@H](CO)NC(=O)[C@H](Cc1ccc(O)cc1)NC(=O)[C@H](CC(=O)O)NC(=O)[C@H](CO)NC(=O)[C@@H](NC(=O)[C@](C)(Cc1ccccc1F)NC(=O)[C@@H](NC(=O)CNC(=O)[C@H](CCC(N)=O)NC(=O)C(C)(C)NC(=O)[C@@H](N)Cc1ccc(O)cc1)[C@@H](C)O)[C@@H](C)O)[C@@H](C)CC)[C@@H](C)CC)C(=O)N[C@@H](CCC(=O)O)C(=O)N[C@@H](Cc1c[nH]c2ccccc12)C(=O)N[C@@H](CC(C)C)C(=O)N[C@@H](CC(C)C)C(=O)N[C@@H](C)C(=O)NCC(=O)NCC(=O)N1CCC[C@H]1C(=O)N[C@@H](CO)C(=O)N[C@@H](CO)C(=O)NCC(=O)N[C@@H](C)C(=O)N1CCC[C@H]1C(=O)N1CCC[C@H]1C(=O)N1CCC[C@H]1C(=O)N[C@@H](CO)C(=O)O [HEC-PT125] (H-Y[Aib]QGT[αMePhe(2-F)]TSDYSILLDRIRQK([AEEA-γGlu-C18 diacid])EFIEWLLAGGPSSGAPPPS-OH) | 0.0217 nM | 0.0269 nM | 0.123 nM
CC[C@H](C)[C@H](NC(=O)[C@H](Cc1ccccc1)NC(=O)[C@H](C)NC(=O)[C@H](CCCCNC(=O)COCCOCCNC(=O)CC[C@H](NC(=O)CCCCCCCCCCCCCCCCC(=O)O)C(=O)O)NC(=O)[C@H](CCC(N)=O)NC(=O)[C@H](CCCNC(=N)N)NC(=O)[C@@H](NC(=O)[C@H](CCCNC(=N)N)NC(=O)[C@H](CC(=O)O)NC(=O)[C@H](CC(C)C)NC(=O)[C@H](CC(C)C)NC(=O)[C@@H](NC(=O)[C@H](CO)NC(=O)[C@H](Cc1ccc(O)cc1)NC(=O)[C@H](CC(=O)O)NC(=O)[C@H](CO)NC(=O)[C@@H](NC(=O)[C@](C)(Cc1ccccc1F)NC(=O)[C@@H](NC(=O)CNC(=O)[C@H](CCC(N)=O)NC(=O)C(C)(C)NC(=O)[C@@H](N)Cc1ccc(O)cc1)[C@@H](C)O)[C@@H](C)O)[C@@H](C)CC)[C@@H](C)CC)C(=O)N[C@@H](CCC(=O)O)C(=O)N[C@@H](Cc1ccc(O)cc1)C(=O)N[C@@H](CC(C)C)C(=O)N[C@@H](CC(C)C)C(=O)N[C@@H](CCC(=O)O)C(=O)NCC(=O)NCC(=O)N1CCC[C@H]1C(=O)N[C@@H](CO)C(=O)N[C@@H](CO)C(=O)NCC(=O)N[C@@H](C)C(=O)N1CCC[C@H]1C(=O)N1CCC[C@H]1C(=O)N1CCC[C@H]1C(=O)N[C@@H](CO)C(=O)O [HEC-PT126] | 0.0589 nM | 0.0319 nM | 0.861 nM
CC[C@H](C)[C@H](NC(=O)[C@H](Cc1ccccc1)NC(=O)[C@H](CCC(=O)O)NC(=O)[C@H](CCC(N)=O)NC(=O)[C@H](CCC(N)=O)NC(=O)[C@H](CCCNC(=N)N)NC(=O)[C@H](CCCCNC(=O)COCCOCCNC(=O)CC[C@H](NC(=O)CCCCCCCCCCCCCCCCCCC(=O)O)C(=O)O)NC(=O)[C@H](CCCNC(=N)N)NC(=O)[C@H](CC(=O)O)NC(=O)[C@H](CC(C)C)NC(=O)[C@H](CC(C)C)NC(=O)[C@@H](NC(=O)[C@H](CO)NC(=O)[C@H](Cc1ccc(O)cc1)NC(=O)[C@H](CC(=O)O)NC(=O)[C@H](CO)NC(=O)[C@@H](NC(=O)[C@](C)(Cc1ccccc1F)NC(=O)[C@@H](NC(=O)CNC(=O)[C@H](CCC(N)=O)NC(=O)C(C)(C)NC(=O)[C@@H](N)Cc1ccc(O)cc1)[C@@H](C)O)[C@@H](C)O)[C@@H](C)CC)C(=O)N[C@@H](CCC(=O)O)C(=O)N[C@@H](Cc1c[nH]c2ccccc12)C(=O)N[C@@H](CC(C)C)C(=O)N[C@@H](CC(C)C)C(=O)N[C@@H](C)C(=O)NCC(=O)NCC(=O)N1CCC[C@H]1C(=O)N[C@@H](CO)C(=O)N[C@@H](CO)C(=O)NCC(=O)N[C@@H](C)C(=O)N1CCC[C@H]1C(=O)N1CCC[C@H]1C(=O)N1CCC[C@H]1C(=O)N[C@@H](CO)C(=O)O [HEC-PT127] | 0.0465 nM | 0.0707 nM | 0.127 nM
CC[C@H](C)[C@H](NC(=O)[C@H](Cc1ccccc1)NC(=O)[C@H](C)NC(=O)[C@H](CCC(N)=O)NC(=O)[C@H](CCC(N)=O)NC(=O)[C@H](CCCNC(=N)N)NC(=O)[C@H](CCCCNC(=O)COCCOCCNC(=O)CC[C@H](NC(=O)CCCCCCCCCCCCCCCCCCC(=O)O)C(=O)O)NC(=O)[C@H](CCCNC(=N)N)NC(=O)[C@H](CC(=O)O)NC(=O)[C@H](CC(C)C)NC(=O)[C@H](CC(C)C)NC(=O)[C@@H](NC(=O)[C@H](CO)NC(=O)[C@H](Cc1ccc(O)cc1)NC(=O)[C@H](CC(=O)O)NC(=O)[C@H](CO)NC(=O)[C@@H](NC(=O)[C@](C)(Cc1ccccc1F)NC(=O)[C@@H](NC(=O)CNC(=O)[C@H](CCC(N)=O)NC(=O)C(C)(C)NC(=O)[C@@H](N)Cc1ccc(O)cc1)[C@@H](C)O)[C@@H](C)O)[C@@H](C)CC)C(=O)N[C@@H](CCC(=O)O)C(=O)N[C@@H](Cc1ccc(O)cc1)C(=O)N[C@@H](CC(C)C)C(=O)N[C@@H](CC(C)C)C(=O)N[C@@H](C)C(=O)NCC(=O)NCC(=O)N1CCC[C@H]1C(=O)N[C@@H](CO)C(=O)N[C@@H](CO)C(=O)NCC(=O)N[C@@H](C)C(=O)N1CCC[C@H]1C(=O)N1CCC[C@H]1C(=O)N1CCC[C@H]1C(=O)N[C@@H](CO)C(=O)O [HEC-PT128] | 0.0608 nM | 0.128 nM | 0.38 nM
